According to article PMC4709073, “Curiouser and Curiouser: The Macrocyclic Lactone, Abamectin, Is also a Potent Inhibitor of Pyrantel/Tribendimidine Nicotinic Acetylcholine Receptors of Gastro-Intestinal Worms” (PLoS ONE, 2016):

Target: T1, Ode-UNC-29:Ode-UNC-63:Ode-UNC-38 (Oesophagostomum dentatum, UniProt E5KIX9+V5J2B2+V5J336)
T1 construct: co-injected with Haemonchus contortus ancillary factors Hco-ric-3, Hco-unc-50, Hco-unc-74; clones from earlier work of the authors
T1 sequence (V5J2B2 21-497): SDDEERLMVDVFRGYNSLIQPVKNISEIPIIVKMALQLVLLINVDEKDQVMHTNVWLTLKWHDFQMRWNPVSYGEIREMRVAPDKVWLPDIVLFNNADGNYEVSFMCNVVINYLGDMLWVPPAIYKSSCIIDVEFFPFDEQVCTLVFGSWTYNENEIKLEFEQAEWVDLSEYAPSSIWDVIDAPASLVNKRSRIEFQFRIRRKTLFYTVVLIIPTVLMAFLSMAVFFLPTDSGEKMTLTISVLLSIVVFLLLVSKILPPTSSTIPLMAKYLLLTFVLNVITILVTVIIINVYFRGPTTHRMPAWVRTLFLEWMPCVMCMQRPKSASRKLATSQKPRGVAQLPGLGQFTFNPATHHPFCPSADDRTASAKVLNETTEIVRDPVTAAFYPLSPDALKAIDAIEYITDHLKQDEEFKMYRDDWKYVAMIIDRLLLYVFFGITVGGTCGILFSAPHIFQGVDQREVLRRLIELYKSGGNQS
T1 sequence (E5KIX9 22-507): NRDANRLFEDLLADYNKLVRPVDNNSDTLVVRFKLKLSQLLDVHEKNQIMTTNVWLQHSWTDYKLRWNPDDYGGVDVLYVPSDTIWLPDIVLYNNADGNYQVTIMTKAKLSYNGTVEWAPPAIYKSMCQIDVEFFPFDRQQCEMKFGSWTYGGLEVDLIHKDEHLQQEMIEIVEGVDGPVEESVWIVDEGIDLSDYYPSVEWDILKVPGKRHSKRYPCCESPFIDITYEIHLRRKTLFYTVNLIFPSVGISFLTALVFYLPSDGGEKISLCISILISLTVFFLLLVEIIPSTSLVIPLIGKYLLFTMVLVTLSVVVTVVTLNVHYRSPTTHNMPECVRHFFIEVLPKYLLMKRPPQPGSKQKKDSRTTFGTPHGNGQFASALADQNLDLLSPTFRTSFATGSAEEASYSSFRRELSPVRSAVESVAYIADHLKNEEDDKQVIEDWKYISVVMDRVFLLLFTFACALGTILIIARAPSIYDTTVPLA
T1 sequence (V5J336 21-507): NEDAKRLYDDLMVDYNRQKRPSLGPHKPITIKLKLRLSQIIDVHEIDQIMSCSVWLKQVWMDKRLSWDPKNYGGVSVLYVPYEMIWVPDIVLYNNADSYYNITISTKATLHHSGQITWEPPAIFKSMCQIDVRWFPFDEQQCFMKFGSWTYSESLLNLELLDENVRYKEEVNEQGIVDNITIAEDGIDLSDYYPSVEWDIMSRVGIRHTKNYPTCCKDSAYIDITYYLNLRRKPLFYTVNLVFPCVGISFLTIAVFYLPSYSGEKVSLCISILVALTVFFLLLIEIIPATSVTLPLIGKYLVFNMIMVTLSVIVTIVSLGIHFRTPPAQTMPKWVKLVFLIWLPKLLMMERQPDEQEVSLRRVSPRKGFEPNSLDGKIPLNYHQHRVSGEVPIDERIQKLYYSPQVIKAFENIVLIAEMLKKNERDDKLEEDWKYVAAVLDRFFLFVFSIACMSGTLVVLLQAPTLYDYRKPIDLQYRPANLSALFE
Assay: two-electrode voltage clamp, Xenopus oocytes, agonist concentration-response, Hill fit
Type: cell-based

Row | SMILES | EC50 [µM]
1 | CC(=O)OCC[N+](C)(C)C [acetylcholine] | 13 ± 1.6
2 | CN1CCCN=C1/C=C/c1cccs1 [pyrantel] | 0.4
